“And” between values parts separate entries of the source, which are not always exact repeats. Equal values may be shown once.

The values that follow come from patent US20080031922A1, “Delivery System” (priority 2004, published 2008).

Common to all, as to format: physicochemical
Data set [1] can be described thus: in vitro release rate of FAP from intrauterine system (IUS). The method, then: The release rate of the therapeutically active substance from the device was measured in vitro as follows:
The devices (implant, intravaginal ring, intracervical or intrauterine system) were attached into a stainless steel holder in vertical position and the holders with the devices were placed into glass bottles containing 75 ml of a dissolution medium, a 1 wt-% hydroxypropyl cyclodextrin solution. The glass bottles were shaked in shaking waterbath 100 rpm at 37° C. The dissolution medium was withdrawn and replaced by a fresh dissolution medium at predetermined time intervals, and the amount of the released substance was analysed by using standard HPLC methods. The concentration of the dissolution medium and the moment of change (withdrawal and replacement) of medium were selected, so that sink-conditions were maintained during the test.
HPBCD modification was tested with a fluorinated antiprogestin derivative (FAP, 11-(4-Acetylphenyl)-17-hydroxy-17-(1,1,2,2,2-pentafluoroethyl)estra-4,9-dien-3-one) in intrauterine (IUS) system. Two samples of 1 and 4 wt-% of HPBCD content in the membrane were prepared by combining with swelling separately extruded membrane and core elastomer rods over the IUS T-frame. The swelling agent was isopropanol.
The content of the therapeutically active agent in the core elastomer was 65 wt-% and the outer diameter of the core was 2.88-2.92 mm and length 21.0-21.1 mm. The membrane was 3 mm longer than the core and the thickness of the membrane was 0,25 mm. FIG. 3 presents the release rate of the therapeutically active agent (μg/d, shown in the y-axis) from two FAP containing intrauterine systems as a function of time (days, shown in the x-axis) compared to a reference sample. Indeed, the squares represent the results for the reference sample, the losanges illustrate the results for the cyclodextrin modified membrane, when the amount of cyclodextrin was 1 wt-% and the triangles represent the results for the cyclodextrin modified membrane, when the amount of cyclodextrin was 4 wt-%.

Data set [2] is described as follows: in vitro release rate of danazol from intravaginal ring (IVR). The procedure: The release rate of the therapeutically active substance from the device was measured in vitro as follows: The devices (implant, intravaginal ring, intracervical or intrauterine system) were attached into a stainless steel holder in vertical position and the holders with the devices were placed into glass bottles containing 75 ml of a dissolution medium, a 1 wt-% hydroxypropyl cyclodextrin solution. The glass bottles were shaked in shaking waterbath 100 rpm at 37° C. The dissolution medium was withdrawn and replaced by a fresh dissolution medium at predetermined time intervals, and the amount of the released substance was analysed by using standard HPLC methods. The concentration of the dissolution medium and the moment of change (withdrawal and replacement) of medium were selected, so that sink-conditions were maintained during the test. […] Hydroxypropyl β-cyclodextrin (HPBCD) was used as the regulating agent. Three different implants with different hydroxypropyl β-cyclodextrin (HPBCD) contents in the membrane were made and the results were compared to corresponding implants without any added HPBCD. All the implants consisted of a core containing the therapeutically active agent and a release rate-controlling membrane encasing the core. The core and the membrane silicone elastomer rods were manufactured by extrusion and the implant compositions were made by swelling the membrane in propanol, as explained above. The content of the therapeutically active agent was 20 wt-% (weight percent) in the core and the micronized hormone was mixed into the elastomer with a mixer before extrusion. The diameters of the IVR rings were ca. 50-55 mm and the periphery of the cross section ca. 9-10 mm, the thicknesses of the membranes were 0.25, 0.35 and 0.7 mm and the HPBCD contents of the membrane were 0.17 wt-%, 1.7 wt-% and 7.7 wt-% respectively. The results are shown in FIG. 1 for the daily in vitro release rate per core area (μg/(d*mm^2), shown as the y axis and days shown in the x-axis), wherein the empty triangles represent the results for 0.17 wt-% HPBCD-content in the membrane with 0.7 mm wall thickness. The empty squares illustrate the results for 1.7 wt-% HPBCD-content in the membrane with 0.35 mm wall thickness and the stars show the results for 7.7 wt-% HPBCD-content in the membrane with 0.25 mm wall thickness. The full triangles represent the comparative results for a membrane with wall thickness of 0.3 mm and the full squares illustrate the comparative results for a membrane with wall thickness of 0.9 mm.

The nature of data set [3]: in vitro release rate of gestodene from implant. The method, then: The release rate of the therapeutically active substance from the device was measured in vitro as follows: The devices (implant, intravaginal ring, intracervical or intrauterine system) were attached into a stainless steel holder in vertical position and the holders with the devices were placed into glass bottles containing 75 ml of a dissolution medium, a 1 wt-% hydroxypropyl cyclodextrin solution. The glass bottles were shaked in shaking waterbath 100 rpm at 37° C. The dissolution medium was withdrawn and replaced by a fresh dissolution medium at predetermined time intervals, and the amount of the released substance was analysed by using standard HPLC methods. The concentration of the dissolution medium and the moment of change (withdrawal and replacement) of medium were selected, so that sink-conditions were maintained during the test. The present invention was also tested with an implant containing gestodene, a synthetic progestogene hormone. The implant core and membrane rods were made with extrusion and the implant composition was made by swelling the membrane in propanol. The outer diameter of the implant core was 2.5-3.0 mm and the length 40-48 mm. The content of the therapeutically active agent in the core was 65 wt-%. The membrane thickness was 0.25 mm, inner diameter 2.35-2.65 mm, outer diameter was 3.0-3.25 mm and length 10 mm longer than the elastomer core. The HPBCD content of the implant membrane was 4 wt-%. The membrane was made of PEO-b-PDMS (15 wt-%) and PDMS (85 wt-%). The results are shown in FIG. 2 as the release rate of the therapeutically active agent (μg/d, shown in y-axis) versus time (days, shown in x-axis), wherein the squares represent the results for the Reference 1, the losanges represent the results for an implant having a HPBCD-containing membrane and the triangles illustrate the results for Reference 2. Reference 1 comprises a core having an outer diameter of 2.5 mm and a length of 40 mm, and a membrane, the thickness of which is 0.25 mm. The implant having a membrane containing 1 wt-% HPBCD has a core with an outer diameter of 3.03 mm and a length of 44 mm, and the membrane wall of 0.25 mm. Reference 2 comprises a core having an outer diameter of 2.8 mm, a length of 48 mm and the membrane with a wall of 0.25 mm.

`CC(=O)c1ccc(C2C[C@@]3(C)[C@@H](CCC3(O)C(F)(F)C(F)(F)F)[C@@H]3CCC4=CC(=O)CCC4=C23)cc1` (stereo partly drawn) [FAP, 11-(4-Acetylphenyl)-17-hydroxy-17-(1,1,2,2,2-pentafluoroethyl)estra-4,9-dien-3-one]: the burst effect entry in data set [1] (amount of cyclodextrin in membrane 1 wt-%) is given as “still some burst effect remaining”. Besides, in data set [1] (amount of cyclodextrin in the membrane 4 wt-% (vs 1 wt-%)), the “level of the release rate” value is “higher”. The “release rate profile compared to reference sample” value in data set [1] (both cyclodextrin modified samples (1 and 4 wt-%)) is “higher”. Also, in data set [1] (both cyclodextrin-modified membranes (1 and 4 wt-% HPBCD) vs reference sample, FIG. 3), the initial burst result is reported as “decreased”. Further, in data set [1] (reference and modified samples compared), the “shape of the curve of the release rate after two days” value is “similar”.

As for `C#C[C@]1(O)CC[C@H]2[C@@H]3CCC4=Cc5oncc5C[C@]4(C)[C@H]3CC[C@@]21C` [danazol, (17alpha)-pregna-2,4-dien-20-yn[2,3-d]isoxazol-17-ol], the “release rate when HPBCD is added into the membrane” value in data set [2] (HPBCD modified IVR vs reference samples) is on record as “seems to be higher”. Besides, the “release rate trend over time” value in data set [2] (HPBCD modified IVR, first two weeks, up to the zenith point) is reported as “slightly increasing trend”. For the same compound, in data set [2] (IVR with 0.17 w-% HPBCD content and 0.7 mm membrane wall, two and half week release), the “release rate compared to ordinary ring with 0.9 mm wall” value was “stays equal”. Moreover, in data set [2] (IVR without HPBCD (membrane wall 0.3 and 0.9 mm) vs HPBCD modified samples, FIG. 1), the “initial burst without the modification relative to that found for modified samples” value is listed as “five to ten times”. The “initial burst without the modification relative to the release rate in two weeks dissolution” value in data set [2] (IVR without HPBCD (membrane wall 0.3 and 0.9 mm), FIG. 1) was “three to five times”. The initial burst effect result in data set [2] (IVR, all HPBCD modified samples (0.17, 1.7, 7.7 wt-% HPBCD in membrane; wall 0.7, 0.35, 0.25 mm), 1 wt-% hydroxypropyl cyclodextrin medium, 37° C, FIG. 1) was “negative initial burst effect”.

On to `C#C[C@]1(O)C=C[C@H]2[C@@H]3CCC4=CC(=O)CC[C@@H]4[C@H]3CC[C@@]21CC` [gestodene], for which the “total decrease of release in 14 days” value in data set [3] (both reference samples (implants without HPBCD in membrane), FIG. 2) is recorded as 30%. Also, in data set [3] (implant with cyclodextrin (HPBCD) modified membrane), the “total decrease of the gestodene release from the second to the third week” value is reported as 0.5%. Besides, the “maximum decrease of release in two weeks” value in data set [3] (implant with cyclodextrin (HPBCD) modified membrane, FIG. 2) was “ca. 6%”. For the same compound, the “decrease of the gestodene release from the second to the third week” value in data set [3] (reference samples (implants without HPBCD in membrane)) was 8.4% and 11%.
